Assay results from US20240252440A1, “COMPOSITIONS, METHODS AND SYSTEMS FOR AEROSOL DRUG DELIVERY” (ASTRAZENECA PHARMACEUTICALS LP, priority 2021, published 2024).

Assay: Particle size distribution by laser diffraction
Format: physicochemical
Source text: When referred to herein, the term “optical diameter” indicates the size of a particle as measured by the Fraunhofer diffraction mode using a laser diffraction particle size analyzer equipped with a dry powder dispenser (e.g., Sympatec GmbH, Clasthal-Zellerfeld, Germany).
Suspending particles were manufactured by spray drying an emulsion of PFOB (perfluorooctyl bromide) and water stabilized by DSPC (1,2-Distearoyl-sn-Glycero-3-Phosphocholine). […] The particle size distribution of the suspending particles was determined by laser diffraction.
Active agent particles formed of budesonide, 16,17-(butylidenebis(oxy))-11,21-dihydroxy-(11-β,16-α)-pregna-1,4-diene-3,20-dione, were formed by micronizing budesonide using a jet mill. The particle size distribution of the budesonide (BD) was determined by laser diffraction.

Compound: albuterol sulfate
- optical diameter exhibited by 50% by volume of the particles: smaller than 1.5 μm
- optical diameter exhibited by 90% by volume of the particles: smaller than 3.3 μm

Compound: COc1ccc(CC(C)NCC(O)c2ccc(O)c(NC=O)c2)cc1.O=C(O)/C=C/C(=O)O (racemic) [formoterol fumarate, (±)-2-hydroxy-5-[(1RS)-1-hydroxy-2-[[(1RS)-2-(4-methoxyphenyl)-1-methylethyl]-amino]ethyl]formanilide fumarate]
- optical diameter exhibited by 50% by volume of the particles: smaller than 1.6 μm
- optical diameter exhibited by 90% by volume of the particles: smaller than 3.9 μm

Compound: C[N+]1(C)CCC(OC(=O)C(O)(c2ccccc2)C2CCCC2)C1.[Br-] (stereo not drawn) [glycopyrrolate, Pyrrolidinium, 3-((cyclopentylhydroxyphenylacetyl)oxy)-1,1-dimethyl-, bromide]
- optical diameter exhibited by 50% by volume of the particles: smaller than 2.1 μm
- optical diameter exhibited by 90% by volume of the particles: smaller than 5 μm
